Experimental findings from patent US9687486B2, “Methods of treating atherosclerosis or myeloproliferative neoplasms by administering a lyn kinase activator” (THE TRUSTEES OF COLUMBIA UNIVERSITY IN THE CITY OF NEW YORK, priority 2012, dated 2017) are described below.

One test deals with c-MPL. Put plainly: Cell surface c-MPL levels in MkPs by flow cytometry. Type of test: cell-based, mouse. As to conditions: TPO 30 ng/ml. (In flow cytometry, cells or beads pass a laser one at a time.)
A further test concerns p-STAT-5 and p-ERK1/2. Kind of test: p-STAT5 and p-ERK1/2 levels in MkPs with or without TPO. The test is classed as cell-based, mouse. The settings on record: WT and Abcg4−/− MkPs; TPO 30 ng/ml for 10 minutes. How it is done:
FIG. 3. Shown are results all from WT, Abcg4^−/− or Lyn^−/− MkPs (n=4). (A) Quantification of tyrosine-phosphorylated c-CBL in response to TPO. (B) Tyrosine-phosphorylated c-CBL levels 5 min after TPO treatment and with or without pretreatment with CD (3 mM), CD-chol (3 mM CD) for 30 min or rHDL (20 μg apoA-I/ml) for 2 hours. (C) Tyrosine-phosphorylated c-CBL with or without 5 min TPO treatment or SU6656 pretreatment (10 μg/ml for 2 h). (D) Cell surface c-MPL with or without TPO or SU6656 treatment for 2 h. (E) Tyrosine-phosphorylated c-CBL (5 min in response to TPO). (F) cell surface c-MPL (2 h TPO treatment) with or without pretreatment with CD-chol (3 mM CD) for 30 min. (G) 16 h EdU incorporation in the presence of TPO and with or without CD (3 mM), CD-Chol (3 mM CD) pretreatment for 30 min or rHDL (20 μg/ml) for 16 h. (H) p-STAT-5 and p-ERK1/2 levels with or without TPO for 10 minutes. TPO was 30 ng/ml for all the assays shown. Error bars are S.E.M. *P<0.05 WT vs Abcg4^−/− TPO and ^P<0.05 for treatment effect.

For a further test, the system named is platelets. Kind of test: Platelet count after a single dose of recombinant TPO in chow-fed mice. The test is classed as in vivo, mouse. The settings on record: single dose TPO 50 μg/kg BW. The method, then: FIG. 2. (A) Abcg4 mRNA expression in various types of BM and peripheral white blood cells in WT mice determined by q-PCR. (n=5). (B) Quantification of BM cell populations and (C) cell surface c-MPL levels of Ldlr^−/− recipient mice fed WTD for 12 weeks (n=5). (D) MK-CFU assay using HPCs harvested by FACS from WT or Abcg4^−/− mice. (E) Platelet count in the WT and Abcg4^−/− mice (n=5) receiving a single dose of TPO (50 μg/kg BW) or the vehicle control. The representative of two studies with similar results is shown. (F) Bodipy-cholesterol efflux from WT or Abcg4^−/− MkPs to CD (2 mM) or rHDL (20 μg/ml) for 2 hours (n=4). (G) Bodipy-cholesterol levels in WT or Abcg4^−/− MkPs following CD/Bodipy-cholesterol loading (n=4). (H) EdU incorporation into and (I) cell surface c-MPL of WT or Abcg4^−/− MkPs were determined by flow cytometry (n=4). Error bars are S.E.M. *P<0.05 WT versus Abcg4^−/− groups and ^P<0.05 for treatment effect.
Mice and Treatments Abcg4^−/−, Abcg1 Abca1^−/−, and Abcg1^−/− mice were created as described (Wang, N. et al. 2006; Yvan-Charvet, L. et al. 2010) and used in this study. Abcg4^−/− mice have been backcrossed onto C57BL6/J mice for more than 10 generations. WT (C57BL/6J) and Ldlr^−/− (B6.12957-Ldlrtm1Her) were obtained from The Jackson Laboratory (Bar Harbor, Me.). […]
CBCs were quantified using whole blood collected from the tail bleeding. […]

Test [1] deals with LacZ-positive splenic cells. Kind of test: LacZ-positive splenic cells after phenylhydrazine injection. Type of test: in vivo, mouse. The settings on record: Abcg4−/− mice on chow diet, 3 days after injections. The source says:
FIG. 6. (A) Representative of LacZ staining of BM sections of WT or Abcg4^−/− mice fed chow diet. Megakaryocytes are indicated by black arrows while LacZ-positive cells are indicated by white arrows Original magnification 20×. (B) Lac-Z staining of spleen of WT and Abcg4^−/− mice fed the chow diet and (C) from Abcg4^−/− BM Ldlr^−/− recipient mice fed WTD for 12 weeks. (D) Representative LacZ staining of spleen sections and quantification of LacZ-positive splenic cells of Abcg4^−/− mice fed the chow diet 3 days after either vehicle or phenylhydrazine injections. Error bars are S.D (n=5). * P<0.05.
Tissues and proximal aortas were serially paraffin sectioned and stained with H&E for morphological analysis as described^2. Aortic lesion size of each animal was calculated as the mean of lesion areas in 5 sections from the same mouse. Bone samples were decalcified with EDTA solution prior to cryosectioning. Von Willibrand Factor antibody (Dako, Catalog #A0082) was used to stain MKs. Lac-Z staining of frozen sections of mouse bone, spleen or proximal aorta was carried out using β-Galactosidase Staining Kit (Cell Signaling Technology, Danvers, Mass.).

The next test relates to c-CBL. Put plainly: c-Cbl tyrosine phosphorylation in MkPs in response to TPO, flow cytometry. The test is classed as cell-based, mouse. The method, then:
BM progenitor cells were stimulated with TPO at the indicated concentration for the specified period of time at 37° C. and then immediately diluted with ice-cold buffer and placed on ice to prevent further changes in phosphorylation. Cells were then centrifuged and the pellet resuspended in BD fix buffer (BD Biosciences) for 10 mins on ice. The cells were washed with BD flow cytometry staining buffer, centrifuged and then resuspended in BD cytofix/perm buffer III for 20 mins. After this the cells were washed and resuspended in BD staining buffer and incubated with lineage (Sca1, CD127, CD45R, CD19, CD11b, CD3e, TER-119, CD2, CD8, CD4, and Ly-6G; all FITC; eBioscience) and progenitor cell markers, ckit, CD16/CD32 (FcγRII/III), CD34, CD41 and anti-phospho-c-Cbl ([…]/[…]; BD biosciences) or an isotype control for 30 mins on ice. The cells were then washed, resuspended in FACS buffer and run on an LSRII. Phosphorylated c-Cbl was normalized against isotype control staining.

Where a SMILES comes first, the peptide text is derived from it. The star is where a group is joined. Cbz = O=C(OCc1ccccc1)*

Experimental for c-MPL: Detection of c-MPL from in vivo and in vitro experiments was performed as follows. After harvesting BM progenitor cells, RBCs were lysed and the cells were then resuspended in FACS buffer. Cells were then stained with a cocktail of lineage markers to allow negative selection of BM progenitor cells (Sca1, CD127, CD45R, CD19, CD11b, CD3e, TER-119, CD2, CD8, CD4, and Ly-6C/G; all FITC; eBioscience) and progenitor cell markers, ckit, CD16/CD32 (FcγRII/III), CD34, CD41 and c-MPL or isotype control and allowed to stain on ice for 30 mins. Cells were then washed and stained with a fluorescently conjugated secondary anti-rabbit antibody to detect the anti-c-MPL for a further 30 mins on ice. After this the cells were washed, resuspended in FACS buffer and run on the LSRII. MEPs were identified as lin^− ckit^+CD16/CD32^loCD34^loCD41^−, while MkPs were identified as lin^−ckit^+CD16/CD32^loCD34^loCD41^+.

For `CC(C)C[C@@H](C=O)NC(=O)[C@H](CC(C)C)NC(=O)[C@H](CC(C)C)NC(=O)OCc1ccccc1` [MG132] (Cbz-Leu-Leu-Leu-aldehyde), the “cell surface c-MPL levels” value in the test with c-MPL (WT MkPs) was “increased”.

As for “TPO: Thrombopoietin, growth factor regulating megakaryocyte/platelet lineage development (R&D Systems)”, in the test on p-STAT-5 and p-ERK1/2, the p-ERK1/2 levels entry was “increased” and the p-STAT5 levels entry is given as “increased”. Further, in the test with platelets (chow-fed Abcg4−/− mice), the increase in platelets is recorded as 2.1 fold. Further, in the test on platelets (chow-fed WT mice), the increase in platelets came to 1.4 fold.

Regarding `NNc1ccccc1` [phenylhydrazine], in test [1], the “LacZ positive cells in the spleen” value is recorded as “marked expansion”.

On to `CN(C)S(=O)(=O)c1ccc2c(c1)/C(=C/c1cc3c([nH]1)CCCC3)C(=O)N2` [SU6656], for which, in the test with c-MPL (WT and Abcg4−/− MkPs), the “cell surface c-MPL levels” value is on record as “increased”. In the test on c-CBL (WT and Abcg4−/− MkPs), the c-CBL tyrosine phosphorylation entry is on record as “markedly decreased”.

As to `CCN(CC)CCO[C@H]1CC[C@@]2(C)C(=CC[C@@H]3[C@@H]2CC[C@]2(C)C(=O)CC[C@@H]32)C1` [U18666A], in the test with c-MPL (Abcg4−/− MkPs), the “cell surface c-MPL levels” value is “reversed”. The c-CBL tyrosine phosphorylation result in the test with c-CBL (Abcg4−/− MkPs) is listed as “reversed”.
